Reference: US20220047552A1, “RAF-1 KINASE INHIBITOR COMPOUNDS FOR SKELETAL MUSCLE MODULATION, METHODS AND USES THEREOF” (SOCIETE DES PRODUITS NESTLE S.A., priority 2018, published 2022)

Assays:
[1] = tested on: human primary muscle cells; test: Assay for myogenesis (troponin-T myotube detection); assay type: cell-based; conditions: human primary myoblasts, differentiation medium, 96 hours, dose dependent response
Source text: In order to confirm the results from the primary assay described above, a secondary assay for myogenesis in vitro on all the hits obtained in this primary screening assay. This secondary assay focused on the later stage of myogenesis when the muscle cells fuse together and form multinucleated myotubes. This assay was based on the detection of the mature troponin-T protein that is expressed in myotubes. In particular, two measurements were made: Fusion factor, which is the % of nuclei that are inside the multinucleated myotubes compare to total nuclei and give a readout for muscle cell differentiation. Myotube area, which is measured based on the Troponin T staining and give a readout on the myotube size and muscle fiber growth. Human primary myoblasts were seeded in 384 well plates at a density of 3'000 cells per well in skeletal muscle growth medium (SKM-M, AMSbio). After one day, the differentiation is induced by a medium change. For treatment, compounds were directly added to the myoblast cultures for 96 hours. Myotubes were stained for TroponinT expression using antibodies directed against TroponinT and counterstained with Hoechst 33342 to visualize cell nuclei. Image acquisition was performed using the ImageXpress (Molecular Devices) platform. Custom module analysis based on Multi-Wavelength Cell Scoring of the MetaXpress software was used for quantification.

[2] = tested on: human primary muscle stem cells; test: Assay for muscle stem cell commitment (Pax7/MyoD immunofluorescence high content screening); assay type: cell-based; conditions: human primary myoblasts, 96 hours
Source text: The inventors developed a high content screening to test in vitro compounds on human primary adult muscle cells. Human Skeletal Muscle Myoblasts (HSMM) were purchased from Lonza (https://bioscience.lonza.com). These cells were isolated from the upper arm or leg muscle tissue of normal donors and used after the second passage. Several donors have been tested to ensure cell viability and purity before selecting the final donor which was a person. The primary screening assay was based on the high content detection of two important myogenic regulatory factors (Pax7 and MyoD) by immunofluorescence. Pax7 and MyoD are the major hallmarks of muscle stem cell stemness and commitment and can be used to monitor muscle stem cell progeny. In particular, Pax7 marks early amplification while MyoD is a later marker for myogenic commitment, and combinations of these markers define the different states of proliferation, differentiation and self-renewal. […] Human primary myoblasts were seeded in 384 well plates at a density of 1'000 cells per well in skeletal muscle growth medium (SKM-M, AMSbio). For treatment, compounds were directly added to the myoblast cultures 16 hours after initial plating. All cultures were then grown for 96 hours. […] Custom module analysis based on Multi-Wavelength Cell Scoring of the MetaXpress software was used for quantification.

## O=C1Nc2ccc(I)cc2C1=Cc1cc(Br)c(O)c(Br)c1 [GW5074, 3-(3,5-Dibromo-4-hydroxy-benzylidene)-5-iodo-1,3-dihydro-indol-2-one]
[1]; FIG. 2A
  myogenic differentiation (Fusion Factor, percent nuclei within troponinT-positive myotubes): enhanced myogenic differentiation
[1]; FIG. 2B
  myofiber growth (area covered by troponinT-positive myotubes): enhanced
[2]; FIG. 1A, dose-dependent response, MyoD+ = Pax7-/MyoD+
  proportion of MyoD+ cells as percent of total cell number (myogenic commitment): increase in the proportion of MyoD+ cells
[2]; FIG. 1B, dose dependent response, Pax7+ regardless of MyoD expression
  number of Pax7+ cells (expansion of muscle stem cells): increase in Pax7+ cells
